Results on ten molecules are retold here after ChEMBL document CHEMBL3132769, “Fragment growing to retain or alter the selectivity of anchored kinase hinge-binding fragments” (Medchemcomm, 2014).

Experiment [1] addresses RAF proto-oncogene serine/threonine-protein kinase (Homo sapiens) (UniProt P04049). Nature of the experiment: Inhibition of human truncated c-Raf expressed in baculovirus assessed as substrate phosphorylation using fluorescence-labelled peptides as substrate at 2 uM after 90 mins by microfluidic peptide phosphorylation assay.
In experiment [2] the target is Insulin-like growth factor 1 receptor (Homo sapiens) (UniProt P08069). Put plainly: Inhibition of human IGF1R catalytic domain expressed in baculovirus assessed as substrate phosphorylation using fluorescence-labelled peptides as substrate at 0.1 uM after 90 mins by microfluidic peptide phosphorylation assay.
The target in experiment [3] is T1, Aurora kinase A (Homo sapiens) (UniProt O14965).
T1 sequence (whole entry): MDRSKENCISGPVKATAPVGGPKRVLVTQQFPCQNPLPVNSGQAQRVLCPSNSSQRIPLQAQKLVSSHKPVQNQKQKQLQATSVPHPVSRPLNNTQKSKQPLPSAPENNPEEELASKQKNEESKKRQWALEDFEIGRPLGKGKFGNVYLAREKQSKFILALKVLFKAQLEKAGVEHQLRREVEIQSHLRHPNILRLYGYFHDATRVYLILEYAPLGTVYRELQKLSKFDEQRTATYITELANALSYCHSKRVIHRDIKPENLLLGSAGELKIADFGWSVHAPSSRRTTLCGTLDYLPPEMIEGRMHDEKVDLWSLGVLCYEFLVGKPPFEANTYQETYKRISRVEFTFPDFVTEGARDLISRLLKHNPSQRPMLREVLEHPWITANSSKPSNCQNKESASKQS
Conditions: 0.1 uM.
Description: Inhibition of human full length AurA expressed in baculovirus assessed as substrate phosphorylation using fluorescence-labelled peptides as substrate at 0.1 uM after 90 mins by microfluidic peptide phosphorylation assay

The target of experiment [4] is T2, Serine/threonine-protein kinase Sgk3 (Homo sapiens) (UniProt Q96BR1).
T2 sequence (whole entry): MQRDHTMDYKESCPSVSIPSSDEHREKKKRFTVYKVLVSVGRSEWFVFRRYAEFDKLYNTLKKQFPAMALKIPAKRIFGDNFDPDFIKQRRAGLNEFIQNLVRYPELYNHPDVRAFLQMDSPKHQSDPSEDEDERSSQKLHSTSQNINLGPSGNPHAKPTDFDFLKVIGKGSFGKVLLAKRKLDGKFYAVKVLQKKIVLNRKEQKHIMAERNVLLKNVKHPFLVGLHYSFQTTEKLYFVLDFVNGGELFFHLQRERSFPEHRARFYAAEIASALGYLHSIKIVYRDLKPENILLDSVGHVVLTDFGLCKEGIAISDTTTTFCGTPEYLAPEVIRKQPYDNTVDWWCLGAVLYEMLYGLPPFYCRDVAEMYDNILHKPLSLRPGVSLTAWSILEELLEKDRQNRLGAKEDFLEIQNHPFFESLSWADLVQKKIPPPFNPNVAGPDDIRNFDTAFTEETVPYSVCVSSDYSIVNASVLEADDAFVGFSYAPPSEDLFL
Put plainly: Inhibition of human full length SGK3 expressed in baculovirus assessed as substrate phosphorylation using fluorescence-labelled peptides as substrate at 0.2 uM after 90 mins by microfluidic peptide phosphorylation assay.

The target in experiment [5] is Casein kinase I isoform alpha (Homo sapiens) (UniProt P48729). Nature of the experiment: Inhibition of human full length CSNK1A1 expressed in baculovirus assessed as substrate phosphorylation using fluorescence-labelled peptides as substrate at 0.2 uM after 90 mins by microfluidic peptide phosphorylation assay.
For the next experiment, the species on record is Homo sapiens. Put plainly: Inhibition of human P70S6K catalytic domain expressed in baculovirus assessed as substrate phosphorylation using fluorescence-labelled peptides as substrate at 0.06 uM after 90 mins by microfluidic peptide phosphorylation assay.
Experiment [6] deals with Insulin receptor (Homo sapiens) (UniProt P06213). Nature of the experiment: Inhibition of human INSR catalytic domain expressed in baculovirus assessed as substrate phosphorylation using fluorescence-labelled peptides as substrate at 0.06 uM after 90 mins by microfluidic peptide phosphorylation assay.
Experiment [7] deals with Fibroblast growth factor receptor 4 (Homo sapiens) (UniProt P22455). Nature of the experiment: Inhibition of human FGFR4 catalytic domain expressed in baculovirus assessed as substrate phosphorylation using fluorescence-labelled peptides as substrate at 9 uM after 90 mins by microfluidic peptide phosphorylation assay.
For experiment [8], the target named is T3, Protein kinase C epsilon type (Homo sapiens) (UniProt Q02156).
T3 sequence (whole entry): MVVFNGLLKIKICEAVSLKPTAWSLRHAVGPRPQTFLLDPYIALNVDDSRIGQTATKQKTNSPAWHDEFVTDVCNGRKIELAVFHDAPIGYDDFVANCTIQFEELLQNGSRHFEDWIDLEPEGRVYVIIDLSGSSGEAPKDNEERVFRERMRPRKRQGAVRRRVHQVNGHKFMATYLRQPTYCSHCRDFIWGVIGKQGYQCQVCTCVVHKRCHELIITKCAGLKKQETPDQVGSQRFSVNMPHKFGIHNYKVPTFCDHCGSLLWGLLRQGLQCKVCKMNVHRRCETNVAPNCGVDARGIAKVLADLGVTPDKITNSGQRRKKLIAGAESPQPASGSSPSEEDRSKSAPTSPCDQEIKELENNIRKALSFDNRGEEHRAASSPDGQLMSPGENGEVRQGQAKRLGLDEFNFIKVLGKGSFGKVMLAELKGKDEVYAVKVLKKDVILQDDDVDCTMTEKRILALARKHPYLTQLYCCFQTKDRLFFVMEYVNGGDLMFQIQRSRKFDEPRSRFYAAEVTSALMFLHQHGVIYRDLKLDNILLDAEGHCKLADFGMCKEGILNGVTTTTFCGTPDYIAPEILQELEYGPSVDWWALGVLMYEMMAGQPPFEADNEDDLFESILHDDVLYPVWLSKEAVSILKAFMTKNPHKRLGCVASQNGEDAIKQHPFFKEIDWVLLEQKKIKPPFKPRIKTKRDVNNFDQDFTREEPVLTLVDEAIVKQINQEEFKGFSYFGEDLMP
Nature of the experiment: Inhibition of human truncated PKC epsilon expressed in baculovirus assessed as substrate phosphorylation using fluorescence-labelled peptides as substrate at 95 uM after 90 mins by microfluidic peptide phosphorylation assay.

Experiment [9] has as its target Casein kinase I isoform alpha (Homo sapiens) (UniProt P48729). Put plainly: Inhibition of human full length CSNK1A1 expressed in baculovirus assessed as substrate phosphorylation using fluorescence-labelled peptides as substrate at 8 uM after 90 mins by microfluidic peptide phosphorylation assay.
The target in experiment [10] is Tyrosine-protein kinase HCK (Homo sapiens) (UniProt P08631). Nature of the experiment: Inhibition of human HCK catalytic domain expressed in baculovirus assessed as substrate phosphorylation using fluorescence-labelled peptides as substrate at […] after 90 mins by microfluidic peptide phosphorylation assay.
The target in experiment [11] is Tyrosine-protein kinase ABL1 (Homo sapiens) (UniProt P00519). Put plainly: Inhibition of human full-length ABL expressed in baculovirus assessed as substrate phosphorylation using fluorescence-labelled peptides as substrate at 420 uM after 90 mins by microfluidic peptide phosphorylation assay.
The target in experiment [12] is Tyrosine-protein kinase ABL2 (Homo sapiens) (UniProt P42684). Nature of the experiment: Inhibition of human truncated Arg expressed in baculovirus assessed as substrate phosphorylation using fluorescence-labelled peptides as substrate at 1000 uM after 90 mins by microfluidic peptide phosphorylation assay.
Experiment [13] concerns the target Dual specificity tyrosine-phosphorylation-regulated kinase 1A (Rattus norvegicus) (UniProt Q63470). Nature of the experiment: Inhibition of rat full length DYRK1a expressed in Escherichia coli cell assessed as substrate phosphorylation using fluorescence-labelled peptides as substrate at 1000 uM after 90 mins by microfluidic peptide phosphorylation assay.

Chain of Casein kinase I isoform alpha (Homo sapiens) (P48729 2-337 limits assumed): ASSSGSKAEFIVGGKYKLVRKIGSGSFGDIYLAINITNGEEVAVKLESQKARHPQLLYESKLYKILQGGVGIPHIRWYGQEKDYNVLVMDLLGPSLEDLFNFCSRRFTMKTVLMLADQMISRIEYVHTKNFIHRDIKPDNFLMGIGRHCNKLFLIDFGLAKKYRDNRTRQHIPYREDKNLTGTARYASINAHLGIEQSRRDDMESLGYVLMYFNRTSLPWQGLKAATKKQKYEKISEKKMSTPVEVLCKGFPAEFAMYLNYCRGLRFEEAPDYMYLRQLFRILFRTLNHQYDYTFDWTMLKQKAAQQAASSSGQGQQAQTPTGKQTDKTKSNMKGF
Chain of RAF proto-oncogene serine/threonine-protein kinase (Homo sapiens) (P04049 whole entry, the tested form may be a part): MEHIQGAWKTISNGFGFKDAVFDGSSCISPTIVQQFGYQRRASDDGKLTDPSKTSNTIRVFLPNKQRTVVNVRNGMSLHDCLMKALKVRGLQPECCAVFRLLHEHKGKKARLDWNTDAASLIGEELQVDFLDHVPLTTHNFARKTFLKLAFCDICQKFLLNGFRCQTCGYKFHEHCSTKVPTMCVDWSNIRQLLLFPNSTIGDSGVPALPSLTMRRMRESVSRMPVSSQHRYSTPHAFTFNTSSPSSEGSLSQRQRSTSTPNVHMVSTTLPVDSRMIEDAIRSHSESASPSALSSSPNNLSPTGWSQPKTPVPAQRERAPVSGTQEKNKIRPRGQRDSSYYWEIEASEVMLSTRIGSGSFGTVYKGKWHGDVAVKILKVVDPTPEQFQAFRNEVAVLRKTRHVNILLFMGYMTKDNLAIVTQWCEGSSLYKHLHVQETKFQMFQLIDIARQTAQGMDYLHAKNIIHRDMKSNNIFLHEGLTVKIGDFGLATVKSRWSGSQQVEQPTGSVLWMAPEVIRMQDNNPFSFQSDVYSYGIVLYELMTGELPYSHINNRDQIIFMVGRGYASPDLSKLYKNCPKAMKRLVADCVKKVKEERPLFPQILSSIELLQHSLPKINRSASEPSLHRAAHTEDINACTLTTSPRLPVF
Chain of Tyrosine-protein kinase HCK (Homo sapiens) (P08631 2-526 limits assumed): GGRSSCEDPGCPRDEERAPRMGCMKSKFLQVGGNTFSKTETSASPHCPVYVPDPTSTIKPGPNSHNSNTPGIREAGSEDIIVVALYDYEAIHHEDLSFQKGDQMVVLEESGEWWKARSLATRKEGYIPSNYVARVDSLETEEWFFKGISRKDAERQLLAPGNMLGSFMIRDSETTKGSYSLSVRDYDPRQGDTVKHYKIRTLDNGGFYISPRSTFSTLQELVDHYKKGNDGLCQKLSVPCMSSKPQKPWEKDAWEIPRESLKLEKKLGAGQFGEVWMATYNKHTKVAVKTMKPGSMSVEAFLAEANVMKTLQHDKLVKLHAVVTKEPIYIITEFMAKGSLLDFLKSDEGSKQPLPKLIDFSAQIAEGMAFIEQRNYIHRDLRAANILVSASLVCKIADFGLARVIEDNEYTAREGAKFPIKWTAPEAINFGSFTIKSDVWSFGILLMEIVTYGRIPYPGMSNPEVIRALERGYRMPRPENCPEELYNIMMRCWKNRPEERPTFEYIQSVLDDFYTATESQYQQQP
Chain of Tyrosine-protein kinase ABL2 (Homo sapiens) (P42684 whole entry, the tested form may be a part): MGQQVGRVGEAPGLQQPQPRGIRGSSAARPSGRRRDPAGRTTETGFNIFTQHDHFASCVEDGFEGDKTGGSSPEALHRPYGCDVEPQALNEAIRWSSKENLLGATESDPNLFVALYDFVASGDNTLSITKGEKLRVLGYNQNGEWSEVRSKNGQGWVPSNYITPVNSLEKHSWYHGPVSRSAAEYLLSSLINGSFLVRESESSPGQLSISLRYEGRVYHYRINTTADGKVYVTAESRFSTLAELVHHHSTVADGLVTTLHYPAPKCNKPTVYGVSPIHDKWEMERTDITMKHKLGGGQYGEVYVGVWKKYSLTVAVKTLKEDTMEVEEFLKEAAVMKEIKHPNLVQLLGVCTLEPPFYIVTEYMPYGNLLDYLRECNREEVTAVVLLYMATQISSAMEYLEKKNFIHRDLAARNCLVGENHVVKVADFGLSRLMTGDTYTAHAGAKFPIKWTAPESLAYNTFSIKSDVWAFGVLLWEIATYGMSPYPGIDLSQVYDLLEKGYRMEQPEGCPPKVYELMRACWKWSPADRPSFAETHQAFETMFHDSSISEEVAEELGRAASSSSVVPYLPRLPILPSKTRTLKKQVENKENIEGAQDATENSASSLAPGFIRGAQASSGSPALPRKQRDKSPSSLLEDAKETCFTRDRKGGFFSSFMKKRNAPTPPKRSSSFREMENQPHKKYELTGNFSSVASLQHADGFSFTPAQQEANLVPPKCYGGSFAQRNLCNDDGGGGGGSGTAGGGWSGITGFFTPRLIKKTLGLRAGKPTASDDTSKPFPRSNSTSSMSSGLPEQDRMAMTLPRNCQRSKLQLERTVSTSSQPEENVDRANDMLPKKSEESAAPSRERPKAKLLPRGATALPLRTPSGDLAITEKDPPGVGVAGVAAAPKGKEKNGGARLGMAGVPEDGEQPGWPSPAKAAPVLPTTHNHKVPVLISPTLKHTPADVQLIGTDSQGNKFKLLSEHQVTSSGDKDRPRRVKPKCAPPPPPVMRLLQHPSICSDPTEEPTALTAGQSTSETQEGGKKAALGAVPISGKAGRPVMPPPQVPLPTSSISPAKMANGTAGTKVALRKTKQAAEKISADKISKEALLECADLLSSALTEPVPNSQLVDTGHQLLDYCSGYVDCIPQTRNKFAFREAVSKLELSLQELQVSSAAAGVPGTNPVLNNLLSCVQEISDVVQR
Chain of Tyrosine-protein kinase ABL1 (Homo sapiens) (P00519 whole entry, the tested form may be a part): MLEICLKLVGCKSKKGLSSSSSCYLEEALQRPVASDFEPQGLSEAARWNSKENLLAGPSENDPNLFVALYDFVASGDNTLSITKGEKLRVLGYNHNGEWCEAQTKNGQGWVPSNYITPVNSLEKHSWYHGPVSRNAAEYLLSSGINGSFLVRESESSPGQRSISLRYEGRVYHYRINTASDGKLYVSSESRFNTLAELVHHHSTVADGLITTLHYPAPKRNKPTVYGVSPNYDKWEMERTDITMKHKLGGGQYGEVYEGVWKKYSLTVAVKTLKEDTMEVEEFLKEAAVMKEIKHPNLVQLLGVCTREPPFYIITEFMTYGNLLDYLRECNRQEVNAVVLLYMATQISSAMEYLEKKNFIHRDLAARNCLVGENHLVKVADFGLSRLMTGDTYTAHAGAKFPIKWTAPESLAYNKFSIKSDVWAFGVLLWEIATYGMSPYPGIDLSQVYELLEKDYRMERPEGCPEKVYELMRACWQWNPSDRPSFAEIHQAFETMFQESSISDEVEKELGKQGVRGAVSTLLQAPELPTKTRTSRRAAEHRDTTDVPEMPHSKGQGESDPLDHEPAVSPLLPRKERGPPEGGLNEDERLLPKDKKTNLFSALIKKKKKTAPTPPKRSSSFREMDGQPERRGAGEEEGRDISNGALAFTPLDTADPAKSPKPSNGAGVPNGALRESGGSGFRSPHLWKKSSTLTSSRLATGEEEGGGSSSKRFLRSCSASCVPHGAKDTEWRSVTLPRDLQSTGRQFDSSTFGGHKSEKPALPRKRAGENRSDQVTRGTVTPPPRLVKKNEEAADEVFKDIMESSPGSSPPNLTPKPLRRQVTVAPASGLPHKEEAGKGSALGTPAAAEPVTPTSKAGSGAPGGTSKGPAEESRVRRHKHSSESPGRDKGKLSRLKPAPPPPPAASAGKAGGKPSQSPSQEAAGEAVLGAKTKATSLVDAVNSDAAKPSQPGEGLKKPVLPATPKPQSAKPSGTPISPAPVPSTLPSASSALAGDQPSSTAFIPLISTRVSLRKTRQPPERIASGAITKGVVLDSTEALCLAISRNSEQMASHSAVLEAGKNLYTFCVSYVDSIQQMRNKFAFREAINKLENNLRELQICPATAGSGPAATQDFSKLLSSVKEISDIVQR
Chain of Fibroblast growth factor receptor 4 (Homo sapiens) (P22455 22-802 limits assumed): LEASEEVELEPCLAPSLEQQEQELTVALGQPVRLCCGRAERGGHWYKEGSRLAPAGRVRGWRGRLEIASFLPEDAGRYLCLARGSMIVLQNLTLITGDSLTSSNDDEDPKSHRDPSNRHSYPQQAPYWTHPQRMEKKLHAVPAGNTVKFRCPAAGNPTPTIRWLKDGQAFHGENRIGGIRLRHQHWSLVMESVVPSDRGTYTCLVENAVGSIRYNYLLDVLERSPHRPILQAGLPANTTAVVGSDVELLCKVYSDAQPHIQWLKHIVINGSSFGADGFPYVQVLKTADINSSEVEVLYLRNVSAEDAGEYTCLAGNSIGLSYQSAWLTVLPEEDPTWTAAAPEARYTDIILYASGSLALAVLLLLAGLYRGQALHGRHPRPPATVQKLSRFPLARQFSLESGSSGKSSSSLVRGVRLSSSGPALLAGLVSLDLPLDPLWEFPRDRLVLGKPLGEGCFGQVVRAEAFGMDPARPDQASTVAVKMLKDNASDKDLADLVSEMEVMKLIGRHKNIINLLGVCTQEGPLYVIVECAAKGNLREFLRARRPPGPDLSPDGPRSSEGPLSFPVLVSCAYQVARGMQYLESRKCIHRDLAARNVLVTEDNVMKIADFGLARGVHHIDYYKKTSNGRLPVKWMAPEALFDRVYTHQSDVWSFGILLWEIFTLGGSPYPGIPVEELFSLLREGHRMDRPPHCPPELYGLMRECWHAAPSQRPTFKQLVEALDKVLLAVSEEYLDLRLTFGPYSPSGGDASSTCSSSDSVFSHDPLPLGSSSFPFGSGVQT

`NC1CCN(c2ncnc3[nH]ccc23)CC1`: the inhibition in experiment [1] came to 7%.
For the molecule `C[C@H](CN(C)C)Oc1nc(Nc2cc3cccc(Cl)c3cn2)cnc1C#N`, the inhibition was 9.5% in experiment [2] and 0% in experiment [3].
With `Clc1ccc(C2(c3ccc(-c4ncnc5[nH]cnc45)cc3)CCNCC2)cc1`, the inhibition in [4] is 41%; in experiment [5], 4%.
Consider `NC1(Cc2ccc(Cl)cc2)CCN(c2ncnc3[nH]ccc23)CC1`, for which the values for the inhibition (in the experiment listed under Homo sapiens; in [6]) were 0% and 6%, respectively.
Turning to `NCC1CN(c2ncnc3[nH]c4cnccc4c23)CCO1` (centres undefined), the inhibition in experiment [7] is 0%.
In the case of `NCCc1ccc(-c2ncnc3[nH]cnc23)cc1`, the inhibition in experiment [8] was found to be 49%.
Consider `NCC1CCN(c2ncnc3[nH]ccc23)CC1`, for which, in experiment [9], the inhibition was 32.5%.
Regarding `COC(=O)c1cnc(Nc2cnc(C#N)cn2)cc1NCC1CCNCC1`, the inhibition in experiment [10] is 11%.
With `c1nc(N2CCOCC2)c2nc[nH]c2n1`, in experiment [11], the inhibition amounted to 69%.
Regarding `c1cnc2[nH]ccc2c1`, the inhibition in [12] is 40%; in experiment [13], 64.5%.
